Data: ChEMBL document CHEMBL2169787, “The biology and chemistry of antifungal agents: a review” (2012)
Converted amounts (≈) assume the structure as drawn.

Experiments:
Type in all cases: functional
Sporothrix schenckii = assay: Antifungal activity against Sporothrix schenckii
Candida parapsilosis [1] = assay: Antifungal activity against Candida parapsilosis ATCC 22019; details: Lodderomyces parapsilosis
Candida albicans = assay: Antifungal activity against Candida albicans; details: for MIC: Candida albicans
Microsporum = assay: Antifungal activity against Microsporum […]
Aspergillus fumigatus = assay: Antifungal activity against Aspergillus fumigatus
Trichophyton rubrum = assay: Antifungal activity against Trichophyton rubrum
Candida tropicalis = assay: Antifungal activity against Candida tropicalis
Candida parapsilosis [2] = assay: Antifungal activity against Candida parapsilosis; details: Lodderomyces parapsilosis
Cryptococcus neoformans [3] = assay: Antifungal activity against Cryptococcus neoformans
Candida = assay: Antifungal activity against Candida spp
[4] = Antifungal activity against Fonsecaea compacta
Microsporum canis = assay: Antifungal activity against Microsporum canis
Staphylococcus aureus = assay: Antibacterial activity against Staphylococcus aureus
[5] = tested on: Mycobacterium tuberculosis; assay: Antibacterial activity against Mycobacterium tuberculosis
Aspergillus ochraceus = assay: Antifungal activity against Aspergillus ochraceus
Aspergillus flavus [6] = assay: Antifungal activity against Aspergillus flavus; details: Aspergillus flavus
Aspergillus flavus [7] = assay: Antifungal activity against Aspergillus flavus assessed as growth inhibition
Aspergillus niger [8] = assay: Antifungal activity against Aspergillus niger assessed as growth inhibition
Lasiodiplodia theobromae = assay: Antifungal activity against Botryodiplodia theobromae
Fusarium verticillioides = assay: Antifungal activity against Fusarium moniliforme
Aspergillus niger [9] = assay: Antifungal activity against Aspergillus niger
Fusarium oxysporum = assay: Antifungal activity against Fusarium oxysporum
Macrophomina phaseolina = assay: Antifungal activity against Macrophomina phaseolina
Cryptococcus neoformans [10] = assay: Antifungal activity against Cryptococcus neoformans after 72 hrs by NCCLS broth microdilution method
Trichoderma viride = assay: Antifungal activity against Trichoderma viride

Which results are given for `C[C@H](CCCN1C=NN(CC(O)(Cn2cncn2)c2ccc(F)cc2F)C1)[C@H]1CC[C@H]2[C@@H]3CC[C@@H]4CCCC[C@]4(C)[C@H]3CC[C@]12C` (stereo partly drawn)?
MIC (Sporothrix schenckii): 2.18 µg/mL (≈ 3.42 µM); MIC (Candida parapsilosis [1]): 2.18 µg/mL (≈ 3.42 µM); MIC (Candida albicans): 2.18 µg/mL (≈ 3.42 µM)

What does the source list for `NC(=O)c1ccc(COc2ccc(N3CCN(CC(O)(Cn4cncn4)c4ccccc4)CC3)cc2)cc1` (stereo not drawn)?
MIC (Microsporum): 0.0625 µg/mL (≈ 0.122 µM); MIC (Aspergillus fumigatus): 0.0625 µg/mL (≈ 0.122 µM); MIC (Trichophyton rubrum): 0.0625 µg/mL (≈ 0.122 µM); MIC (Candida tropicalis): 0.0625 µg/mL (≈ 0.122 µM); MIC (Candida parapsilosis [2]): 0.0625 µg/mL (≈ 0.122 µM); MIC (Cryptococcus neoformans [3]): 0.0625 µg/mL (≈ 0.122 µM)

For `OC(CN1CCN(c2ccc(OCc3ccncc3)cc2)CC1)(Cn1cncn1)c1ccccc1` (stereo not drawn), which MIC (Microsporum) is on record?
Its MIC is 0.0625 µg/mL (≈ 0.133 µM).

What about the MIC (Aspergillus fumigatus) of the same compound?
Its MIC is 0.0625 µg/mL (≈ 0.133 µM).

What about the MIC (Trichophyton rubrum) of the same compound?
The MIC was 0.0625 µg/mL (≈ 0.133 µM).

What about the MIC (Candida tropicalis) of the same compound?
Its MIC is 0.0625 µg/mL (≈ 0.133 µM).

What about the MIC (Candida parapsilosis [2]) of the same compound?
Its MIC is 0.0625 µg/mL (≈ 0.133 µM).

And the MIC (Cryptococcus neoformans [3])?
The MIC was 0.0625 µg/mL (≈ 0.133 µM).

Which MIC (Candida) does the source give for `CC1=NN(c2ccccc2)C(=O)C12C(C(=O)OC(C)C)C2(c1ccccc1)c1ccccc1` (stereo not drawn) here?
The MIC was 25 µg/mL (≈ 57 µM).

Which MIC (Candida) does the source give for `CC1=NN(c2ccccc2)C(=O)C12C(C)(C(=O)OC(C)(C)C)C2(c1ccccc1)c1ccccc1` (stereo not drawn) here?
The MIC was 25 µg/mL (≈ 53.6 µM).

Which MIC (Candida) does the source give for `CCOC(=O)C1(C)C2(C(=O)N(c3ccccc3)N=C2C)C1(c1ccccc1)c1ccccc1` (stereo not drawn) here?
The MIC was 25 µg/mL (≈ 57 µM).

Which MIC (Aspergillus fumigatus) does the source give for `N#Cc1ccc(N(CC(O)(Cn2cncn2)c2ccc(F)cc2F)C2CC2)cc1` (stereo not drawn) here?
The MIC was 0.125 µg/mL (≈ 0.316 µM).

And the MIC (Trichophyton rubrum)?
Its MIC is 0.125 µg/mL (≈ 0.316 µM).

And the MIC [4]?
Its MIC is 0.125 µg/mL (≈ 0.316 µM).

What about the MIC (Candida tropicalis) of the same compound?
Its MIC is 0.125 µg/mL (≈ 0.316 µM).

What about the MIC (Candida parapsilosis [2]) of the same compound?
Its MIC is 0.125 µg/mL (≈ 0.316 µM).

What about the MIC (Microsporum canis) of the same compound?
The MIC was 0.125 µg/mL (≈ 0.316 µM).

What about the MIC (Candida albicans) of the same compound?
Its MIC is 0.125 µg/mL (≈ 0.316 µM).

And the MIC (Cryptococcus neoformans [3])?
Its MIC is 0.125 µg/mL (≈ 0.316 µM).

For `NC(=S)N1N=C(c2ccc(Cl)cc2)CC1c1cccnc1` (stereo not drawn), which MIC (Staphylococcus aureus) is on record?
Its MIC is 128 µg/mL (≈ 404 µM).

And the MIC [5]?
The MIC was 6.25 µg/mL (≈ 19.7 µM).

With `N#CC1=C(N)OC2=C(SC3=NC4=C(C(=O)CCC4)C(c4ccc(F)cc4)N32)C1c1ccc(Cl)cc1` (stereo not drawn) as the compound, how does the MIC (Aspergillus ochraceus) read?
Its MIC is 40 µg/mL (≈ 79.2 µM).

And the MIC (Aspergillus flavus [6])?
Its MIC is 40 µg/mL (≈ 79.2 µM).

With `CC1=NN(c2ccccc2)C(=O)C12C(C)(C#N)C2(c1ccccc1)c1ccccc1` (stereo not drawn) as the compound, how does the MIC (Candida) read?
Its MIC is 25 µg/mL (≈ 63.9 µM).

With `C[C@H](CCCN1C=NN(CC(O)(Cn2cncn2)c2ccc(F)cc2F)C1)[C@H]1CC[C@H]2[C@@H]3[C@H](O)C[C@@H]4CCCC[C@]4(C)[C@H]3CC[C@]12C` (stereo partly drawn) as the compound, how does the MIC (Sporothrix schenckii) read?
Its MIC is 2.18 µg/mL (≈ 3.34 µM).

What about the MIC (Candida parapsilosis [1]) of the same compound?
Its MIC is 2.18 µg/mL (≈ 3.34 µM).

What about the MIC (Candida albicans) of the same compound?
Its MIC is 2.18 µg/mL (≈ 3.34 µM).

Which MIC (Candida albicans) does the source give for `CCCn1cc(-c2ccc(Cl)cc2)c(C(c2ccccc2)n2ccnc2)c1` (stereo not drawn) here?
The MIC was 0.016 µg/mL (≈ 0.0426 µM).

With `CCN(CC)C(=O)C1C2(C(=O)N(c3ccccc3)N=C2C)C1(c1ccccc1)c1ccccc1` (stereo not drawn) as the compound, how does the MIC (Candida) read?
Its MIC is 25 µg/mL (≈ 55.4 µM).

With `OC(Cn1cncn1)(Cn1cncn1)c1ccc(F)cc1F` [FLUCONAZOLE] as the compound, how does the MIC (Cryptococcus neoformans [3]) read?
Its MIC is 0.53 µg/mL (≈ 1.73 µM).

Which “growth inhibition (GI)” value (Aspergillus flavus [7]) does the source give for `N#CC(=C1CCCCC1)c1nc2cc(Cl)ccc2o1` here?
Its value is 60%.

What about the “growth inhibition (GI)” value (Aspergillus niger [8]) of the same compound?
Its value is 60%.

What does the source list for `CN(CC(O)(Cn1cncn1)c1ccc(F)cc1F)C1CC1` (stereo not drawn)?
MIC (Aspergillus fumigatus): 0.125 µg/mL (≈ 0.405 µM); MIC (Trichophyton rubrum): 0.125 µg/mL (≈ 0.405 µM); MIC [4]: 0.125 µg/mL (≈ 0.405 µM); MIC (Candida tropicalis): 0.125 µg/mL (≈ 0.405 µM); MIC (Candida parapsilosis [2]): 0.125 µg/mL (≈ 0.405 µM); MIC (Microsporum canis): 0.125 µg/mL (≈ 0.405 µM); MIC (Candida albicans): 0.125 µg/mL (≈ 0.405 µM); MIC (Cryptococcus neoformans [3]): 0.125 µg/mL (≈ 0.405 µM)

With `CCC(C)n1ncn(-c2ccc(N3CCN(c4ccc(OCC5COC(Cn6cncn6)(c6ccc(Cl)cc6Cl)O5)cc4)CC3)cc2)c1=O` (stereo not drawn) [ITRACONAZOLE] as the compound, how does the MIC (Microsporum) read?
The MIC was 0.0625 µg/mL (≈ 0.0886 µM).

And the MIC (Aspergillus fumigatus)?
Its MIC is 0.0625 µg/mL (≈ 0.0886 µM).

What about the MIC (Trichophyton rubrum) of the same compound?
The MIC was 0.0625 µg/mL (≈ 0.0886 µM).

And the MIC (Candida tropicalis)?
Its MIC is 0.0625 µg/mL (≈ 0.0886 µM).

And the MIC (Candida parapsilosis [2])?
The MIC was 0.0625 µg/mL (≈ 0.0886 µM).

And the MIC (Cryptococcus neoformans [3])?
Its MIC is 0.0625 µg/mL (≈ 0.0886 µM).

And the MIC (Candida)?
The MIC was 2 µg/mL (≈ 2.83 µM).

For `Cc1cccc(C2=NN(C(N)=S)C(c3cccnc3)C2)c1` (stereo not drawn), which MIC (Staphylococcus aureus) is on record?
Its MIC is 128 µg/mL (≈ 432 µM).

What about the MIC [5] of the same compound?
Its MIC is 6.25 µg/mL (≈ 21.1 µM).

With NYSTATIN as the compound, how does the inhibition zone (IZ) (Candida) read?
Its inhibition zone (IZ) is 20 mm.

Which results are given for `COc1ccc(N2OC(c3ccccc3)CC2c2ccc(-c3ccccc3)cc2)cc1` (stereo not drawn)?
MIC (Lasiodiplodia theobromae): 2.5 µg/mL (≈ 6.13 µM); MIC (Aspergillus flavus [6]): 2.5 µg/mL (≈ 6.13 µM); MIC (Fusarium verticillioides): 2.5 µg/mL (≈ 6.13 µM)

With `N#Cc1c(Cl)c(Cl)c(Cl)c(C#N)c1Cl` [CHLOROTHALONIL] as the compound, how does the MIC (Aspergillus niger [9]; Aspergillus niger) read?
Its MIC is 52 µg/mL (≈ 196 µM).

And the MIC (Fusarium oxysporum; Fusarium oxysporum)?
The MIC was 52 µg/mL (≈ 196 µM).

And the MIC (Macrophomina phaseolina)?
The MIC was 52 µg/mL (≈ 196 µM).

With `CN(C/C=C/C#CC(C)(C)C)Cc1cccc2ccccc12` [TERBINAFINE] as the compound, how does the MIC50 (Cryptococcus neoformans [10]) read?
The MIC50 was 0.25 µg/mL (≈ 0.858 µM).

With `CC1=NN(c2ccccc2)C(=O)C12C(C#N)C2(c1ccccc1)c1ccccc1` (stereo not drawn) as the compound, how does the MIC (Candida) read?
The MIC was 25 µg/mL (≈ 66.2 µM).

With `N#CC(=C1CCCC1)c1nc2cc(Cl)ccc2o1` as the compound, how does the “growth inhibition (GI)” value (Aspergillus flavus [7]) read?
The value was 60%.

What about the “growth inhibition (GI)” value (Aspergillus niger [8]) of the same compound?
The value was 60%.

For `CCCCCCCCCCCCCCCc1nnc(CCCCCCC/C=C/CC(O)CCCCCC)o1` (stereo not drawn), which “inhibition zone (IZ)” value (Trichoderma viride) is on record?
Its value is 15 mm.

And the “inhibition zone (IZ)” value (Aspergillus niger [9])?
Its value is 15 mm.

What about the “inhibition zone (IZ)” value (Fusarium oxysporum) of the same compound?
The value was 15 mm.

What about the “inhibition zone (IZ)” value (Candida albicans) of the same compound?
Its value is 15 mm.

With `O=C1CCCC2=C1C(c1ccc(F)cc1)N1C(=O)CSC1=N2` (stereo not drawn) as the compound, how does the MIC (Aspergillus ochraceus) read?
The MIC was 40 µg/mL (≈ 126 µM).

What about the MIC (Aspergillus flavus [6]) of the same compound?
Its MIC is 40 µg/mL (≈ 126 µM).
